Key:
Assay in all cases: Dundee kinase panel
Assay type in all cases: biochemical
Details in all cases: for remaining activity at 1 µM: read-out: residual activity
[1] = biological target: T1, ZAP70 (Homo sapiens, UniProt P43403)
T1 construct: lines 1-140) and Reaction Biology
T1 sequence (P43403 1-619): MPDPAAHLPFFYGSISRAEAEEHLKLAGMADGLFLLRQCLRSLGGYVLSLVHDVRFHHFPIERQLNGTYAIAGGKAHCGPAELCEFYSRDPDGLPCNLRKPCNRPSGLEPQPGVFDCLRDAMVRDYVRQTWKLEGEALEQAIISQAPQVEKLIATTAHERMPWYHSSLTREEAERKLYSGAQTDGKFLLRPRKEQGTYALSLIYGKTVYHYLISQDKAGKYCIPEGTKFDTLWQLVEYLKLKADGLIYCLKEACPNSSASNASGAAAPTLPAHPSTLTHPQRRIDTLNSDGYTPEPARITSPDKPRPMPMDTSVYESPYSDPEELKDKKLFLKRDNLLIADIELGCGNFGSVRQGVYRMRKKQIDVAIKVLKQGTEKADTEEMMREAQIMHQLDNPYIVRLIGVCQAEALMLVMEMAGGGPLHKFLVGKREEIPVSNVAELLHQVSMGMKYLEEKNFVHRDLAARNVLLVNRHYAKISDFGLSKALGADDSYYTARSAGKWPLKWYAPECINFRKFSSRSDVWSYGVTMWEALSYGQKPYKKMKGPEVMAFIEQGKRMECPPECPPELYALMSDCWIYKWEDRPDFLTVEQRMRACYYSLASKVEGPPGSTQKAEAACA
Experimental: (§1) Compounds were screened at 1 μM. For key hits, pIC50 values were then determined by HTRF as above. […] Stability in mouse and human liver microsomes was determined by Cyprotex.

[2] = biological target: T2, DDR2 (Homo sapiens, UniProt Q16832)
T2 construct: lines 1-140) and Reaction Biology
T2 sequence (Q16832 22-855): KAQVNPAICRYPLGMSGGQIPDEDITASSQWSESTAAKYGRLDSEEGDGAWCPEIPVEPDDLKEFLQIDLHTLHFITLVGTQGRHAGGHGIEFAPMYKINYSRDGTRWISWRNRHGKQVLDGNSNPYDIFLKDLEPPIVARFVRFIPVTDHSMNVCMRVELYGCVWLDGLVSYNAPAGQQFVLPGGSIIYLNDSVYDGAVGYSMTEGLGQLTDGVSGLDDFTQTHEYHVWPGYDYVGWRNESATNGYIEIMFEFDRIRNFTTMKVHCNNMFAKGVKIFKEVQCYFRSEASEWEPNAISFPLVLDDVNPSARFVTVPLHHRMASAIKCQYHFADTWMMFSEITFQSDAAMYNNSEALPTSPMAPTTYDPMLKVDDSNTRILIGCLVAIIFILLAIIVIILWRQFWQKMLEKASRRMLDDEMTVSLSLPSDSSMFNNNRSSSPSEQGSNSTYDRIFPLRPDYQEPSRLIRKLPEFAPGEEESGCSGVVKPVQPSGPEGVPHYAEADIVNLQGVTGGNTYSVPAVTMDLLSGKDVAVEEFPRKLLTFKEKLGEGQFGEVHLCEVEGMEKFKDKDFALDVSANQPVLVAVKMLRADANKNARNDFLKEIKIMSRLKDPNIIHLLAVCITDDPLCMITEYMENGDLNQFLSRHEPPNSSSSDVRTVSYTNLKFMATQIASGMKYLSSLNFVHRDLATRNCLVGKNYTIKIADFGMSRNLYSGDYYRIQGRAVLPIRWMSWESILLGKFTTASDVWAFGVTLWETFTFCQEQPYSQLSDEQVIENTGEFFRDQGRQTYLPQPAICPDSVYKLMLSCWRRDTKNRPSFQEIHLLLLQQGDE
Experimental: as §1

[3] = biological target: T3, CK1δ (Homo sapiens, UniProt P48730)
T3 construct: lines 1-140) and Reaction Biology
T3 sequence (P48730 whole entry): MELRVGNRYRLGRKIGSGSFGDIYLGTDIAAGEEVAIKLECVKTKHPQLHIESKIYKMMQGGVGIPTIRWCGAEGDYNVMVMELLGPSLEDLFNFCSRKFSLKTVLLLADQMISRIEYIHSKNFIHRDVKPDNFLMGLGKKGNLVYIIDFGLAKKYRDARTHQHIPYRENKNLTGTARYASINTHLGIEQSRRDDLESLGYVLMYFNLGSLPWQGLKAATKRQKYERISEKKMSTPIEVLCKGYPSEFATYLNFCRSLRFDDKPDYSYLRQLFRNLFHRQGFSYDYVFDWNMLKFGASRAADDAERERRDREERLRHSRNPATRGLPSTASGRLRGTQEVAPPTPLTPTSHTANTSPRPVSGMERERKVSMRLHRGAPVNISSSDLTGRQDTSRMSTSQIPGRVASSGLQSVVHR
Experimental: as §1

[4] = biological target: T4, IGF-1R (Homo sapiens, UniProt P08069)
T4 construct: lines 1-140) and Reaction Biology
T4 sequence (P08069 31-1367): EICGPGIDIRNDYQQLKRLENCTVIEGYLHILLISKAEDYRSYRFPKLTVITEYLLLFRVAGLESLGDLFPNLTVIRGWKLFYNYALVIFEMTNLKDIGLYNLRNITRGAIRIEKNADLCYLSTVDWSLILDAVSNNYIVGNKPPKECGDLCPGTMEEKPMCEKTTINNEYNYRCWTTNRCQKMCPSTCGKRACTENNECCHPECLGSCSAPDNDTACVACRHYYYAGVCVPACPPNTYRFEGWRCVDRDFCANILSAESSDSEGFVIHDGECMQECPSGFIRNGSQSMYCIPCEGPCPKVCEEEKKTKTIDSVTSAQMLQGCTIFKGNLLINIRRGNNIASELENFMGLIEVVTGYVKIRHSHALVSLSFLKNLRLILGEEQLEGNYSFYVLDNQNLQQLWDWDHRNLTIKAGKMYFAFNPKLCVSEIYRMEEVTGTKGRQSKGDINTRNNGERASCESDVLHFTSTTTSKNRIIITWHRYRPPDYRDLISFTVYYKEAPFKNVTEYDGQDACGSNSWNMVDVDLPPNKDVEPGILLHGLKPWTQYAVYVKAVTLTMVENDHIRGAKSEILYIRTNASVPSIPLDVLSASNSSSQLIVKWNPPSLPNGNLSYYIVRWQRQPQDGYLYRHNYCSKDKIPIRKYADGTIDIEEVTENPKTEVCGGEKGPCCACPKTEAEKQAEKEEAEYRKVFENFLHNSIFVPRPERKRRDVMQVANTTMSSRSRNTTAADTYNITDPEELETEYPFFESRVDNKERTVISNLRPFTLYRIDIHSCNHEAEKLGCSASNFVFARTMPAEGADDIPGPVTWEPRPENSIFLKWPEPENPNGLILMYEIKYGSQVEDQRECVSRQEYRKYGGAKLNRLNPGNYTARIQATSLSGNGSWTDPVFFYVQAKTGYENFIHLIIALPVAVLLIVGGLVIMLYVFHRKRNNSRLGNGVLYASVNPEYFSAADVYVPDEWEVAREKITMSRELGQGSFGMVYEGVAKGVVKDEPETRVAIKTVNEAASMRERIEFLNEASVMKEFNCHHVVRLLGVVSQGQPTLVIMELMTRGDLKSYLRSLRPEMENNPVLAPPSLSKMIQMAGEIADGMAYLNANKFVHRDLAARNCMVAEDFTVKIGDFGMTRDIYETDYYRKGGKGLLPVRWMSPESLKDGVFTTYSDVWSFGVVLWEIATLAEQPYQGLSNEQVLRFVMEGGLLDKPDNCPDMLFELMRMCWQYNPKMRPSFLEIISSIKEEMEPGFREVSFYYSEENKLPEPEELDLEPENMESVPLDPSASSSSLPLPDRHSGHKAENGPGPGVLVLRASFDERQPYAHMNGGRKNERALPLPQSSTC
Experimental: as §1

[5] = biological target: T5, CK2 (Homo sapiens, UniProt P68400)
T5 construct: lines 1-140) and Reaction Biology
T5 sequence (P68400 whole entry): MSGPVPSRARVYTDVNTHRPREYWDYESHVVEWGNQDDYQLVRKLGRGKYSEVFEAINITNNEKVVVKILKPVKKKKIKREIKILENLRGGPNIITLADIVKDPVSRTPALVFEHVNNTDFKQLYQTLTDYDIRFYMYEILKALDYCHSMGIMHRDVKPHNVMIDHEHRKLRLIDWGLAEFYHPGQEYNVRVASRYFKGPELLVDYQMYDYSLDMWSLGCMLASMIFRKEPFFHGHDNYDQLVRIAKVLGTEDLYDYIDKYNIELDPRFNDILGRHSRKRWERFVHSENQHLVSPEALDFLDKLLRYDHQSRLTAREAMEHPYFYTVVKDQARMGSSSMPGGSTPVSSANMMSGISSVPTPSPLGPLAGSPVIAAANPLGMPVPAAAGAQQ
Experimental: as §1

[6] = biological target: T6, CSK (Homo sapiens, UniProt P41240)
T6 construct: lines 1-140) and Reaction Biology
T6 sequence (P41240 whole entry): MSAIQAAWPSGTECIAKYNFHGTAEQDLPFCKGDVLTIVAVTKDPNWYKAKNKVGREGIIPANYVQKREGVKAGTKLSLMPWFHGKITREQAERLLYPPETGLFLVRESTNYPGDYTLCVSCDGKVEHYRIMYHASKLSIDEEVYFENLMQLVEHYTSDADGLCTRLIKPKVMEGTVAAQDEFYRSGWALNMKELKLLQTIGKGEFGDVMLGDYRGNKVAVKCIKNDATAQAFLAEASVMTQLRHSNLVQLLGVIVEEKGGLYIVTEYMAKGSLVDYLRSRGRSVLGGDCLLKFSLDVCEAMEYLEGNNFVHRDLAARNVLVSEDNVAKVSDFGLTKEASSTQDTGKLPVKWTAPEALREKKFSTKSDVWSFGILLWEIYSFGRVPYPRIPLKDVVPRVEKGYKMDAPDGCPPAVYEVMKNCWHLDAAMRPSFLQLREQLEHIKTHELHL
Experimental: as §1

[7] = biological target: T7, RSK1 (Homo sapiens, UniProt Q15418)
T7 construct: lines 1-140) and Reaction Biology
T7 sequence (Q15418 whole entry): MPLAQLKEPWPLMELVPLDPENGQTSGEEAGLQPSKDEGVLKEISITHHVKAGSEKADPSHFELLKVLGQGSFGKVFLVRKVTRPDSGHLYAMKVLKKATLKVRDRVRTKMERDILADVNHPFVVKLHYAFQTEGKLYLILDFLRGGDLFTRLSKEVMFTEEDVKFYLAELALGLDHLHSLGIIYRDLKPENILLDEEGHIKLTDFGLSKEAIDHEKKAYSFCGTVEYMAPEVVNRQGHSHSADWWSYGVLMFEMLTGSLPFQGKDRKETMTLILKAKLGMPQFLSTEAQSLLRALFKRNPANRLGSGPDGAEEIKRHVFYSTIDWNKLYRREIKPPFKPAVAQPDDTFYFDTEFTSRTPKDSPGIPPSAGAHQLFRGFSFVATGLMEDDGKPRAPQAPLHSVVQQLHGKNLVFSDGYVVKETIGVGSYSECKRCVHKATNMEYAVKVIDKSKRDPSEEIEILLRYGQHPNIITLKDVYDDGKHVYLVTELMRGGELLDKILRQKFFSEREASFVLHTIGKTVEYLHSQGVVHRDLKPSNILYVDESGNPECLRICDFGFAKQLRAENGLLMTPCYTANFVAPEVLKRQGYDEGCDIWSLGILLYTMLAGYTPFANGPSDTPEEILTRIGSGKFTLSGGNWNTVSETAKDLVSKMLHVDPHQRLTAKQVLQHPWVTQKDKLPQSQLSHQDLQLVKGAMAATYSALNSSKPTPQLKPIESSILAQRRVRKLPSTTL
Experimental: as §1

[8] = biological target: T8, IKKe (Homo sapiens, UniProt Q14164)
T8 construct: lines 1-140) and Reaction Biology
T8 sequence (Q14164 1-716): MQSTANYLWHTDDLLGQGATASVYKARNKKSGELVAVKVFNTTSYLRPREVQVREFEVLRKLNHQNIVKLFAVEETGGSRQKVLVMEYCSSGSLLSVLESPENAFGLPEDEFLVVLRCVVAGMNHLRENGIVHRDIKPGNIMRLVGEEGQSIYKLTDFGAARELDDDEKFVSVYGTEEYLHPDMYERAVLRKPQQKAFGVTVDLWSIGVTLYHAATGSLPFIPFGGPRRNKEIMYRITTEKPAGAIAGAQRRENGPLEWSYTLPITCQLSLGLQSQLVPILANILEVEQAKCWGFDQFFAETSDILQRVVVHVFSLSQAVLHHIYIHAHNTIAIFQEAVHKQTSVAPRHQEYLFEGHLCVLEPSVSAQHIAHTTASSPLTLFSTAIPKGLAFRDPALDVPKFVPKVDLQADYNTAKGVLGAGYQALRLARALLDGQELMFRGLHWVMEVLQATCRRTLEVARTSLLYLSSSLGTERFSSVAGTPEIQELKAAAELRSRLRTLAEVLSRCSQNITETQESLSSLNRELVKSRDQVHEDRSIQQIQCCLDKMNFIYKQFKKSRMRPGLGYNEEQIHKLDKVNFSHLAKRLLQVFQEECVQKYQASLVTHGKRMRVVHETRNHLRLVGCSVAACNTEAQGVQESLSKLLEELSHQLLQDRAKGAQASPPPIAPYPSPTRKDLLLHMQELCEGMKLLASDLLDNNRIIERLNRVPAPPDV
Experimental: as §1

O=C1Cc2c([nH]c3ccc(Br)cc23)-c2ccccc2N1 [Kenpaullone] showed a remaining activity at 1 µM [1] of 59%, a remaining activity at 1 µM [2] of 88% and a remaining activity at 1 µM [3] of 104%. It also gave a remaining activity at 1 µM [4] of 74%, a remaining activity at 1 µM [5] of 90% and a remaining activity at 1 µM [6] of 68%. The remaining activity at 1 µM [7] was 84% and the remaining activity at 1 µM [8] was 98%.
COCCOc1ccc(-c2cn(-c3ccccc3)c3nc[nH]c(=O)c23)cc1 [DMX-5804, 5-[4-(2-methoxy-ethoxy)-phenyl]-7-phenyl-3,7-dihydro-pyrrolo[2,3-d]pyrimidin-4-one] showed a remaining activity at 1 µM [1] of 94%, a remaining activity at 1 µM [2] of 80% and a remaining activity at 1 µM [3] of 94%. It also gave a remaining activity at 1 µM [4] of 112%, a remaining activity at 1 µM [5] of 104% and a remaining activity at 1 µM [6] of 103%. It also gave a remaining activity at 1 µM [7] of 86% and a remaining activity at 1 µM [8] of 106%.
Compound O=C1Nc2ccc(I)cc2/C1=C/c1cc(Br)c(O)c(Br)c1 [GW5074] has a remaining activity at 1 µM [1] of 98%, a remaining activity at 1 µM [2] of 62% and a remaining activity at 1 µM [3] of 88%. For the same compound, the remaining activity at 1 µM [4] was 88%, the remaining activity at 1 µM [5] was 72% and the remaining activity at 1 µM [6] was 52%. It also gave a remaining activity at 1 µM [7] of 32% and a remaining activity at 1 µM [8] of 82%.
Nc1ncc(C(=O)NC2CN(C(=O)C3CC3)C2)c2ccc(-c3cccc(F)c3)nc12 [GNE-495] was tested, and the residual activity ([1]; 1 μM) was 109%, the residual activity ([2]; 1 μM) was 109% and the residual activity ([3]; 1 μM) was 65%. For the same compound, the residual activity ([4]; 1 μM) was 85%, the residual activity ([5]; 1 μM) was 93% and the residual activity ([6]; 1 μM) was 94%. It also gave a residual activity ([7]; 1 μM) of 65% and a residual activity ([8]; 1 μM) of 79%.
Work on Oc1ncnc2c1c(-c1ccccc1)cn2-c1ccccc1 [F1386-0303, 5,7-diphenyl-7H-pyrrolo[2,3-d]pyrimidin-4-ol] yielded a remaining activity at 1 µM [1] of 114%, a remaining activity at 1 µM [2] of 88% and a remaining activity at 1 µM [3] of 107%. The remaining activity at 1 µM [4] was 108%, the remaining activity at 1 µM [5] was 77% and the remaining activity at 1 µM [6] was 97%. For the same compound, the remaining activity at 1 µM [7] was 89% and the remaining activity at 1 µM [8] was 139%.
